Measured values published in patent publication US20080145313A1, “Compositions and Methods for the Treatment and Prevention of Neoplastic Disorders” (Genesis Research & Development Corporation Limited, priority 2006, published 2008).

How the values were obtained:
[1] = test system: SK-Mel-5 cells; assay: Growth inhibition of siRNA-transfected SK-Mel-5 cells, SYBR Green I DNA content; format: cell-based, human; details: 10 nM siRNA; standardized against control siRNA
Experimental: A549 cells (human lung cancer cell line; ATCC No. CCL-185), SK-MeI-5 cells (human melanoma cell line; ATCC No. HTB-70), MCF-7 cells (human adenocarcinoma cell line; ATCC No. HTB-22), HCT-116 cells (colorectal carcinoma; ATCC CCL-247) and HCT-116 p53 null cells (derived from ATCC No. CCL-247; Bunz et al., Science 282:1497-1501, 1998) were cultured in RPMI 1640 medium with 10% v/v heat-inactivated fetal calf serum (FCS). Cells were seeded at a density of 5×10^4 cells/cm^2 in multi-well tissue culture plates. Sequences of Stealth™ siRNA duplexes (Invitrogen) targeting human ribonucleotide reductase subunit 1 (SEQ ID NO: 22) and subunit 2 (SEQ ID NO; 38) are given in SEQ ID NO: 4830-4832 (DNA), and SEQ ID NO: 5136-5138 (RNA) for RRM1, and SEQ ID NO: 5306-5308 (DNA), and SEQ ID NO: 5303-5305 (RNA) for RRM2. siRNAs were transfected at different concentrations into cells using Lipofectamine™ RNAiMAX transfection reagent (Invitrogen). Non-specific siRNA (SEQ ID NO: 4804 and 4805 (DNA), and SEQ ID NO: 5301 and 5302 (RNA)) were used as controls. The cellular DNA content was measured using a SYBR Green I-based fluorometric assay at 24, 48, 72 and 96 hours after transfection (120 hours for the MCF-7 cells), as follows. At the indicated time points following reverse transfection, cells were harvested and frozen at −80° C. overnight. Cells were thawed and cell lysis buffer (phosphate-buffered saline (PBS) containing 1% Triton X-100, pH 7) and SYBR Green I (1:10^5 V/V; Invitrogen) was added to the wells and incubated overnight in the dark at 4° C.
The following day, cell lysates were mixed thoroughly, and DNA fluorescence was measured with a Wallac Victor^2 plate reader (Turku, Finland) set at an excitation frequency of 485 nm and measuring emission at 535 nm.
siRNA-mediated inhibition of cancer cell growth using siRNA targeting the YBX1 gene (SEQ ID NO: 92) was determined as follows. SK-MeI-5 cells were cultured in RPMI 1640 medium with 10% v/v heat-inactivated fetal calf serum. Cells were cultured as described above and reverse transfected with 0.1, 1.0, 10 and 40 nM (final concentration) of a pool of YBX1-targeting siRNAs (SEQ ID NO: 4982 and 4983 (DNA), and SEQ ID NO: 5277 and 5278 (RNA); referred to as 994 and 995 in FIG. 19) or a non-specific control (SEQ ID NO: 4804 (DNA), and SEQ ID NO: 5301 (RNA); referred to as Stealth 81 ctrl in FIG. 19), and cell growth determined after 120 h by measuring DNA fluorescence with a Wallac Victor^2 plate reader (Turku, Finland) set at an excitation frequency of 485 nm and measuring emission at 535 nm. Growth inhibition by the siRNA pool was standardized against the inhibition obtained with the control siRNAs.
siRNA-mediated RNAi was also determined on a panel of different cell lines. A549, SK-MeI-5, wt HCT-116, HCT-116−/−p53 and MCF-7 cells were transfected with 10 nM siRNAs targeting YBX-1 and growth inhibition determined as described above. The YBX1 siRNAs are given in SEQ ID NO: 4981 to 4985 (DNA) and SEQ ID NO: 5276-5280 (RNA). A non-specific siRNA (SEQ ID NO: 4804 (DNA) and SEQ ID NO: 5301 (RNA)) was used as control. Growth inhibition by the siRNAs, given in Table 14, was standardized against the inhibition obtained with the control siRNA.

[2] = test system: YBX1 mRNA; assay: YBX1 mRNA level by quantitative RT-PCR in A549 cells; format: cell-based, human; details: 24 h post-transfection
Experimental: A549 cells were transfected with 10 nM RRM1-1 (SEQ ID NO: 4830 (DNA), and SEQ ID NO: 5136 (RNA); light grey bar in FIG. 12A), RRM1-2 (SEQ ID NO: 4831 (DNA), and SEQ ID NO: 5137 (RNA); dark grey bar in FIG. 12A), RRM1-3 (SEQ ID NO: 4832 (DNA), and SEQ ID NO: 5138 (RNA); black bar in FIG. 12A) or control siRNA (SEQ ID NO: 4804 (DNA), and SEQ ID NO: 5301 (RNA)) (open bar in FIG. 12A) and relative mRNA levels quantified 24 h post-transfection. RNA was purified from cells using Trizol® extraction as per the manufacturer's protocol (Invitrogen). cDNA was prepared by digesting approximately 200 ng purified RNA with DNAse I (Invitrogen) for 15 minutes at room temperature, followed by 15 minutes at 65° C. in the presence of 25 mM EDTA. 30 ng random primers were added and incubated for 10 minutes at room temperature, 1 minute on ice; Superscript III polymerase (Invitrogen) was added in presence of 5 nM DTT (Sigma, St Louis, Mo.) and 1 mM deoxyribonucleotides (Invitrogen), and the reaction incubated at 25° C. for 5 minutes, followed by an hour at 55° C. cDNA was diluted 1:3 in 10 mM Tris pH 7.0, and quantitative RT-PCR carried out on an ABI Prism 7900HT (Applied Biosciences, Inc., Foster City, Calif.) using FastStart TaqMan SYBRGreen (Roche, Basel, Switzerland) and specific primers at 360 nM for RRM1 and RRM2 and the housekeeping genes HPRT and Lamin. Primer sequence pairs used for RRM1, RRM2, HPRT and lamin are given in SEQ ID NO: 4881 and 4882; 4883 and 4884; 4885 and 4886; 4887 and 4888 respectively.
A549 cells were transfected with 0.1, 1.0 and 10 nM siRNA (given in SEQ ID NO: 4981 to 4985 (DNA), and SEQ ID NO: 5276-5280 (RNA)) and the relative mRNA levels quantified 24 h post-transfection as described in Example 8.

**Q.** For “SEQ ID NO: 4982: siRNA targeting YBX1 (chain 1 TTTGCTGGTAATTGCGTGGAGGACC; chain 2 UUUGCUGGUAAUUGCGUGGAGGACC; chemistry not given here; one strand in two spellings)”, which “growth inhibition, SK-Mel-5 cells” value [1] is on record?
**A.** +++ (At least 70% inhibition)

**Q.** And the “YBX1-specific reduction of mRNA levels in A549 cells” value (“YBX1-specific reduction” below) ([2]; 1 nM siRNA)?
**A.** +++ (At least 70% inhibition)

**Q.** What about the “YBX1-specific reduction” value ([2]; 10 nM siRNA) of the same substance?
**A.** +++ (At least 70% inhibition)

**Q.** How did the “growth inhibition, SK-Mel-5 cells” value [1] turn out when “SEQ ID NO: 4983: siRNA targeting YBX1 (chain 1 TACTGTGGTCGACGCCCATAGGGTC; chain 2 UACUGUGGUCGACGCCCAUAGGGUC; chemistry not given here; one strand in two spellings)” was run?
**A.** ++ (At least 50% inhibition)

**Q.** What about the “YBX1-specific reduction” value ([2]; 10 nM siRNA) of the same substance?
**A.** ++ (At least 50% inhibition)

**Q.** Which “growth inhibition, SK-Mel-5 cells” value [1] does the source give for “SEQ ID NO: 4984: siRNA targeting YBX1 (chain 1 CAAGGTAGACCAGTGAGGCAGAATA; chain 2 CAAGGUAGACCAGUGAGGCAGAAUA; chemistry not given here; one strand in two spellings)” here?
**A.** +++ (At least 70% inhibition)

**Q.** And the “YBX1-specific reduction” value ([2]; 0.1 nM siRNA)?
**A.** +++ (At least 70% inhibition)

**Q.** And the “YBX1-specific reduction” value ([2]; 1 nM siRNA)?
**A.** +++ (At least 70% inhibition)

**Q.** What about the “YBX1-specific reduction” value ([2]; 10 nM siRNA) of the same substance?
**A.** +++ (At least 70% inhibition)

**Q.** How did the “growth inhibition, SK-Mel-5 cells” value [1] turn out when “SEQ ID NO: 4985: siRNA targeting YBX1 (chain 1 CAGCCTAGAGAGGACGGCAATGAAG; chain 2 CAGCCUAGAGAGGACGGCAAUGAAG; chemistry not given here; one strand in two spellings)” was run?
**A.** ++ (At least 50% inhibition)

**Q.** What about the “YBX1-specific reduction” value ([2]; 0.1 nM siRNA) of the same substance?
**A.** + (At least 20% inhibition)

**Q.** And the “YBX1-specific reduction” value ([2]; 1 nM siRNA)?
**A.** ++ (At least 50% inhibition)

**Q.** What about the “YBX1-specific reduction” value ([2]; 10 nM siRNA) of the same substance?
**A.** ++ (At least 50% inhibition)
